Measured values taken from patent US9815796B2 (Merck Sharp & Dohme Corp., priority 2013, dated 2017).
Like-named read-outs stand apart in the source and are kept apart here.

Experiments:
Rhesus PDE2A3 = Rhesus PDE2A3 (Macaca mulatta, UniProt B3VTJ2); assay: PDE2 fluorescence polarization (IMAP FP) inhibition assay, rhesus enzyme; type: biochemical, rhesus macaque
Method in brief: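 IMAP FP (mP from parallel and perpendicular fluorescence against substrate-only control) was read ≥1 h after adding binding reagent. The preceding 60 min room-temperature reaction contained FAM-cAMP (50 nM) and cGMP (1 uM) in pH 7.2 Tris buffer with MgCl2 and DTT. Enzyme was supernatant of sonicated AD293 cells expressing rhesus PDE2A3; compounds were 3-fold titrated, DMSO 1% final.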

human PDE2A1 = human PDE2A1 (Homo sapiens (Human), UniProt O00408); assay: IMAP FP PDE selectivity panel, human PDE2A1; type: biochemical
human PDE2A1, sequence (O00408 other isoform, or with tags, fused parts or gaps): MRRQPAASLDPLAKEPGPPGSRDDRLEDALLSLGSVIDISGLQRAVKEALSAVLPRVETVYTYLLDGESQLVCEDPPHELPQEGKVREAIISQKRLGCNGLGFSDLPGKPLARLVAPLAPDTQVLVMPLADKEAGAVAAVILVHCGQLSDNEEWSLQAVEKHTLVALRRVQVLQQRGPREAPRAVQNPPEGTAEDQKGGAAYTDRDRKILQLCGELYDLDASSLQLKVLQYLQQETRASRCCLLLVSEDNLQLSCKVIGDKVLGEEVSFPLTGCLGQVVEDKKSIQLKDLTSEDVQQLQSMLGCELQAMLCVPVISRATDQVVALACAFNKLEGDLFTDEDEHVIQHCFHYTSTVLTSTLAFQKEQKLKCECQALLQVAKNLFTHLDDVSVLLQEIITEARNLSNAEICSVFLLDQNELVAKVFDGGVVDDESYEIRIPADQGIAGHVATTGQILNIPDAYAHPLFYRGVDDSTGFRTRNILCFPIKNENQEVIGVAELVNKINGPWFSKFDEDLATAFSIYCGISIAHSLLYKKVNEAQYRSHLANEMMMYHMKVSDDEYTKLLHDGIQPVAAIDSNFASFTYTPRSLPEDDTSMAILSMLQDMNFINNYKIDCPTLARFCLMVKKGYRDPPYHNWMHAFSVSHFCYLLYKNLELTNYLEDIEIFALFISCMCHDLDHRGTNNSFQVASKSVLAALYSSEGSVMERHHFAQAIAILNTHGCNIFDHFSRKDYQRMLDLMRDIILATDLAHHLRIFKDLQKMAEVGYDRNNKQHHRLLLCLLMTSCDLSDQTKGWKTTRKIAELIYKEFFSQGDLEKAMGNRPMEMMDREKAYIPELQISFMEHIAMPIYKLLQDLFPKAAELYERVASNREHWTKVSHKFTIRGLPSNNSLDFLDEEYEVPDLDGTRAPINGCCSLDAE
Method in brief: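 IMAP FP format: substrate 50 nM FAM-cAMP plus 1000 nM cGMP, enzyme (insect-cell GST-tagged human PDE2A1) at ~20% conversion, 60 min reaction at room temperature. Apparent inhibition constants calculated from parallel/perpendicular fluorescence with KM 10,000 nM.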

[1] = Rhesus PDE2, Lab A, read-out: Rhesus PDE2 Ki (nM) - Lab A
[2] = Rhesus PDE2, Lab B, read-out: Rhesus PDE2 Ki (nM) - Lab B
[3] = Human PDE2, Lab B, read-out: Human PDE2 Ki (nM) - Lab B
[4] = Human PDE2, Lab A, read-out: Human PDE2 Ki (nM) - Lab A

Rhesus PDE2A3, sequence (B3VTJ2 1-941): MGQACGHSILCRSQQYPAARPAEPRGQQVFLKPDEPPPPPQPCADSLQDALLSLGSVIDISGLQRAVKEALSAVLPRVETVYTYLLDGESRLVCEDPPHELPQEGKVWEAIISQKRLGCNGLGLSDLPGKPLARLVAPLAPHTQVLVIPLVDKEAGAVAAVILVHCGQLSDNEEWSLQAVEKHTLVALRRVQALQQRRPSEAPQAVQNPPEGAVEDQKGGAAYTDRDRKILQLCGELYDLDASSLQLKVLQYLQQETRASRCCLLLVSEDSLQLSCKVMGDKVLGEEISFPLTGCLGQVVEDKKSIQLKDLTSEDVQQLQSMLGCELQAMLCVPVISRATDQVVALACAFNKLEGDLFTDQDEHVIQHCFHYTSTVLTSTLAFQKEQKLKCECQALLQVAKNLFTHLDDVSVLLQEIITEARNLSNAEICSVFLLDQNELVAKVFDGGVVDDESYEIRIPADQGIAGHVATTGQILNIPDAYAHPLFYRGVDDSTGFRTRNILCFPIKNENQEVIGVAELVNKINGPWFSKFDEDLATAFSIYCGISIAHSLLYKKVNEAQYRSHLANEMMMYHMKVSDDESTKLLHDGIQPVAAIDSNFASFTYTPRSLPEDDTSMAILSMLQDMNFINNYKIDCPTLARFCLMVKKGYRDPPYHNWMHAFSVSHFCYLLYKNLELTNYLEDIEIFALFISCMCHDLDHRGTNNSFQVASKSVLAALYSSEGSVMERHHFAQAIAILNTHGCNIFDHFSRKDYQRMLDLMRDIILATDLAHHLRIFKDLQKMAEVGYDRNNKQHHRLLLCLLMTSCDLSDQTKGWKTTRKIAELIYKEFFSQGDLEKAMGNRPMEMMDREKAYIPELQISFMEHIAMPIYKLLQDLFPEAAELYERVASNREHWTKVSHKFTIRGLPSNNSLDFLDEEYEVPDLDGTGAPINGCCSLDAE

SMILES | Ki (Rhesus PDE2A3; [1]) [nM] | Ki (Rhesus PDE2A3; [2]) [nM] | Ki (human PDE2A1; [3]) [nM] | Ki (human PDE2A1; [4]) [nM]
C[C@@H](NC(=O)c1cc(=O)[nH]c(-c2ncccn2)n1)c1ccc(C(F)(F)F)c(F)c1 [Example 98, N-{(1R)-1-[3-fluoro-4-(trifluoromethyl)phenyl]ethyl}-6-oxo-1,6-dihydro-2,2′-bipyrimidine-4-carboxamide] | 8.8 | 12 | 15 | 
C[C@@H](NC(=O)c1cc(=O)[nH]c(C2CC2)n1)c1ccc(-c2ccccc2)cc1 [Example 144, N-[(1R)-1-biphenyl-4-ylethyl]-2-cyclopropyl-6-oxo-1,6-dihydropyrimidine-4-carboxamide] | 16 |  |  | 6
C[C@@H](NC(=O)c1cc(=O)[nH]cn1)c1ccc(C(F)(F)F)cc1 [Example 8, (R)-6-oxo-N-(1-(4-(trifluoromethyl)phenyl)ethyl)-1,6-dihydropyrimidine-4-carboxamide] | 410 |  |  | 334
C[C@@H](NC(=O)c1cc(=O)[nH]c(-c2ccccc2)n1)c1ccc(OC(F)(F)F)cc1F [Example 152] | 16 |  |  | 13
Cc1nc(C(=O)N[C@H](C)c2ccc(OC(F)(F)F)cc2)cc(=O)[nH]1 [Example 9, 2-methyl-6-oxo-N-{(1R)-1-[4-(trifluoromethoxy)phenyl]ethyl}-1,6-dihydropyrimidine-4-carboxamide] | 21 |  |  | 16
CC1(C(NC(=O)c2cc(=O)[nH]c(-c3ccccc3)n2)c2ccc(SC(F)(F)F)c(F)c2)CC1 (single isomer, unassigned) [Example 707, (R)- or (S)-N-((3-fluoro-4-((trifluoromethyl)thio)phenyl)(1-methylcyclopropyl)methyl)-6-oxo-2-phenyl-1,6-dihydropyrimidine-4-carboxamide] |  | 8.3 | 7.7 | 
Cc1nc(C(=O)NC2(c3ccc(C(F)(F)F)cc3)CCCC2)cc(=O)[nH]1 [Example 270, 2-methyl-6-oxo-N-{1-[4-(trifluoromethyl)phenyl]cyclopentyl}-1,6-dihydropyrimidine-4-carboxamide] | 225 |  |  | 113
O=C(NC1(c2ccc(C(F)(F)F)cc2)CCC1)c1cc(=O)[nH]c(C2CC2)n1 [Example 143, 2-cyclopropyl-6-oxo-N-{1-[4-(trifluoromethyl)phenyl]cyclobutyl}-1,6-dihydropyrimidine-4-carboxamide] | 21 |  |  | 11
O=C(N[C@@H](c1ccc(OC(F)(F)F)c(F)c1)C1CC1)c1cc(=O)[nH]c(-c2ccccc2)n1 [Example 176] | 4.8 |  |  | 3.9
O=C(NC1(c2ccc(OC(F)(F)F)cc2)CC1)c1cc(=O)[nH]c(-c2ncccn2)n1 [Example 285, 6-oxo-N-{1-[4-(trifluoromethoxy)phenyl]cyclopropyl}-1,6-dihydro-2,2′-bipyrimidine-4-carboxamide] | 46 |  |  | 46
Cc1nc(C(=O)N[C@@H](c2ccc(OC(F)(F)F)cc2)C2CC2)cc(=O)[nH]1 [Example 70, N-{(R)-cyclopropyl[4-(trifluoromethoxy)phenyl]methyl}-2-methyl-6-oxo-1,6-dihydropyrimidine-4-carboxamide] | 25 | 29 | 29 | ~14
Cc1nc(C(=O)N[C@@H](c2ccc(S(F)(F)(F)(F)F)cc2)C2CC2)cc(=O)[nH]1 [Example 405, N-{(R)-cyclopropyl[4-(pentafluoro-λ^6-sulfanyl)phenyl]methyl}-2-methyl-6-oxo-1,6-dihydropyrimidine-4-carboxamide] |  | 17 | 15 | 
O=C(NC1(c2ccc(SC(F)(F)F)c(F)c2)CC1)c1cc(=O)[nH]c(-c2ccccc2)n1 [Example 352, N-(1-{3-fluoro-4-[(trifluoromethyl)sulfanyl]phenyl}cyclopropyl)-6-oxo-2-phenyl-1,6-dihydropyrimidine-4-carboxamide] | 15 | 51 | 54 | 
CC(C)[C@@H](NC(=O)c1cc(=O)[nH]c(-c2ccccc2)n1)c1ccc(OC(F)(F)F)c(F)c1 [Example 127, N-{(1R)-1-[3-fluoro-4-(trifluoromethoxy)phenyl]-2-methylpropyl}-6-oxo-2-phenyl-1,6-dihydropyrimidine-4-carboxamide] | 3.6 | 4.7 | 3.9 | 2.2
O=C(N[C@@H](c1ccc(OC(F)(F)F)cc1)C1CC1)c1cc(=O)[nH]c(-c2ncccn2)n1 [Example 92, N-{(R)-cyclopropyl[4-(trifluoromethoxy)phenyl]methyl}-6-oxo-1,6-dihydro-2,2′-bipyrimidine-4-carboxamide] | 91 |  |  | 21
C[C@@H](NC(=O)c1cc(=O)[nH]c(-c2cccc(F)c2)n1)c1ccc(C(F)(F)F)cc1 [Example 138, 2-(3-fluorophenyl)-6-oxo-N-{(1R)-1-[4-(trifluoromethyl)phenyl]ethyl}-1,6-dihydropyrimidine-4-carboxamide] | 76 |  |  | 69
C[C@@H](NC(=O)c1cc(=O)[nH]c(C2CC2)n1)c1ccc(OC(F)(F)F)cc1F [Example 297, 2-cyclopropyl-N-{(1R)-1-[2-nuoro-4-(trifluoromethoxy)phenyl]ethyl}-6-oxo-1,6-dihydropyrimidine-4-carboxamide] | 30 |  |  | 16
Cc1nc(C(=O)N[C@@H](c2ccc(C3CC3)cc2)C2CC2)cc(=O)[nH]1 [Example 50, N-[(R)-cyclopropyl(4-cyclopropylphenyl)methyl]-2-methyl-6-oxo-1,6-dihydropyrimidine-4-carboxamide] | 8 | 11 | 8.1 | 
COc1ccc(Cc2nc(C(=O)N[C@@H](c3ccc(SC(F)(F)F)cc3)C(C)C)cc(=O)[nH]2)cc1 [Example 469, 2-(4-methoxybenzyl)-N-[(1R)-2-methyl-1-{4-[(trifluoromethyl)sulfanyl]phenyl}propyl]-6-oxo-1,6-dihydropyrimidine-4-carboxamide] |  | 0.96 | 0.91 | 
Cc1nc(C(=O)N[C@@H](c2ccc(OC(F)(F)F)c(F)c2)C(C)C)cc(=O)[nH]1 [Example 38, N-{(1R)-1-[3-fluoro-4-(trifluoromethoxy)phenyl]-2-methylpropyl}-2-methyl-6-oxo-1,6-dihydropyrimidine-4-carboxamide] | 7.8 |  |  | 5.6

The remaining lines, values ahead:

Ki (Rhesus PDE2A3; [1]) [nM] | Ki (Rhesus PDE2A3; [2]) [nM] | Ki (human PDE2A1; [3]) [nM] | Ki (human PDE2A1; [4]) [nM] | SMILES
3.9 |  |  | 3.9 | O=C(N[C@@H](c1ccc(OC(F)(F)F)cc1)C1CC1)c1cc(=O)[nH]c(-c2ccccc2)n1 [Example 175, N-{(R)-cyclopropyl[4-(trifluoromethoxy)phenyl]methyl}-6-oxo-2-phenyl-1,6-dihydropyrimidine-4-carboxamide]
45 | 74 | 50 |  | COc1ccc([C@@H](C)NC(=O)c2cc(=O)[nH]c(-c3ccccc3)n2)cc1 [Example 347, N-[(1R)-1-(4-methoxyphenyl)ethyl]-6-oxo-2-phenyl-1,6-dihydropyrimidine-4-carboxamide]
62 |  |  | 29 | O=C(NC1(c2ccc(C(F)(F)F)cc2)CCCC1)c1cc(=O)[nH]c(C2CC2)n1 [Example 197, 2-cyclopropyl-6-oxo-N-{1-[4-(trifluoromethyl)phenyl]cyclopentyl}-1,6-dihydropyrimidine-4-carboxamide]
48 |  |  | ~11 | CC[C@@H](NC(=O)c1cc(=O)[nH]c(COC)n1)c1ccc(OC(F)(F)F)c(F)c1 [Example 114, N-{(1R)-1-[3-fluoro-4-(trifluoromethoxy)phenyl]propyl}-2-(methoxymethyl)-6-oxo-1,6-dihydropyrimidine-4-carboxamide]
 | 38 | 40 |  | CC[C@@H](NC(=O)c1cc(=O)[nH]c(C(C)(C)c2ccc(OC)cc2)n1)c1ccc(SC(F)(F)F)c(F)c1 [Example 496, N-[(1R)-1-{3-fluoro-4-[(trifluoromethyl)sulfanyl]phenyl}propyl]-2-[1-(4-methoxyphenyl)-1-methylethyl]-6-oxo-1,6-dihydropyrimidine-4-carboxamide]
 | 55 | 49 |  | O=C(NC(c1ccc(C(F)(F)F)cc1)C(F)(F)F)c1cc(=O)[nH]c(-c2ccccc2)n1 (stereo not drawn) [Example 393, 6-oxo-2-phenyl-N-{2,2,2-trifluoro-1-[4-(trifluoromethyl)phenyl]ethyl}-1,6-dihydropyrimidine-4-carboxamide]
~9.2 | 23 | 21 |  | O=C(N[C@H](CC(F)(F)F)c1ccc(C(F)(F)F)cc1)c1cc(=O)[nH]c(-c2ccccc2)n1 [Example 353, 6-oxo-2-phenyl-N-{(1R)-3,3,3-trifluoro-1-[4-(trifluoromethyl)phenyl]propyl}-1,6-dihydropyrimidine-4-carboxamide]
60 |  |  | 59 | Cc1nc(C(=O)NC(c2ccc(C(F)(F)F)cc2)c2nnn[nH]2)cc(=O)[nH]1 (stereo not drawn) [Example 336, 2-Methyl-6-oxo-N-{1H-tetrazol-5-yl[4-(trifluoromethyl)phenyl]methyl}-1,6-dihydropyrimidine-4-carboxamide]
 | 1.9 | 1.9 |  | COc1ccc(Cc2nc(C(=O)N[C@@H](c3ccc(OC(F)(F)F)cc3)C3CC3)cc(=O)[nH]2)cc1 [Example 480, N-{(R)-cyclopropyl[4-(trifluoromethoxy)phenyl]methyl}-2-(4-methoxybenzyl)-6-oxo-1,6-dihydropyrimidine-4-carboxamide]
14 |  |  | 9.1 | O=C(NC1(c2ccc(OC(F)(F)F)cc2)CC1)c1cc(=O)[nH]c(C2CC2)n1 [Example 299, 2-cyclopropyl-6-oxo-N-{1-[4-(trifluoromethoxy)phenyl]cyclopropyl}-1,6-dihydropyrimidine-4-carboxamide]
